# Reference: article PMC8325362, “Drugs repurposed for COVID-19 by virtual screening of 6,218 drugs and cell-based assay” (Proceedings of the National Academy of Sciences of the …, 2021)
# Like-named read-outs stand apart in the source and are kept apart here.
# Experiments:
# [1] = system: SARS-CoV-2; test: microbe, parasite or virus in culture; assay type: cell-based
# [2] = human, cited from earlier work
# [3] = Cytotoxicity (CC50) in Calu-3 cells; conditions: human
# [4] = target: M^pro (Severe acute respiratory syndrome coronavirus 2, UniProt P0DTD1); assay type: biochemical; conditions: FRET assay, 0.1 to 50 μM
# [5] = Cytotoxicity (CC50) in Vero cells; conditions: African green monkey
# [6] = system: SARS-CoV-2; test: microbe, parasite or virus in culture; conditions: Severe acute respiratory syndrome coronavirus 2, Vero, 24 h, read-out: SARS-CoV-2 IC50 in Vero cells
# [7] = in vitro; conditions: human
# [8] = in vitro; conditions: African green monkey
# [9] = system: SARS-CoV-2; test: Checkerboard drug combination assay, SARS-CoV-2 inhibition in Vero cells; assay type: cell-based; conditions: Severe acute respiratory syndrome coronavirus 2, Vero, read-out: Relative viral inhibition (%); for inhibition at 0.03 µM: Omipalisib 0.03 μM; for inhibition at 0.06 µM: Omipalisib 0.06 μM; for inhibition at 0.12 µM: Omipalisib 0.12 μM; for inhibition at 0.25 µM: Omipalisib 0.25 μM; for inhibition at 0.49 µM: Omipalisib 0.49 μM; for inhibition at 0.98 µM: Omipalisib 0.98 μM; for inhibition at 1.97 µM: Omipalisib 1.97 μM; for inhibition at 0.69 µM: Tipifarnib 0.69 μM; for inhibition at 1.38 µM: Tipifarnib 1.38 μM; for inhibition at 2.75 µM: Tipifarnib 2.75 μM; for inhibition at 5.5 µM: Tipifarnib 5.50 μM; for inhibition at 11 µM: Tipifarnib 11.00 μM; for inhibition at 22.01 µM: Tipifarnib 22.01 μM; for inhibition at 44.02 µM: Tipifarnib 44.02 μM
# [10] = system: SARS-CoV-2; test: in vitro; conditions: African green monkey
# [11] = in vitro; conditions: African green monkey, Relative cell viability (%)
# [12] = system: SARS-CoV-2; conditions: for antiviral activity against SARS-CoV-2 in Vero cells: assay validation with reference drugs
# [13] = Severe acute respiratory syndrome coronavirus 2, Calu-3, 24 h, Calu-3 cells, MOI 0.5, 24 h
# [14] = read-out: Approx. Cmax (maximum serum concentration), oral
smiles,measurement,setting,value
CCN1CCN(c2cc(-c3ccc(F)cc3)c3c(n2)CCCCCC3)CC1 [Blonanserin],IC50,[1]; [13],> 50 µM
same,Cmax,[2]; [14],~3 nM
same,CC50 at 24 h,[3],> 50 µM
same,inhibitory activity against M^pro,[4],showed inhibitory activities
same,CC50 at 24 h,[5],30.3 µM
same,IC50,[6],12 µM
Cc1cc(O)c2c(=O)c3c(O)cc(O)c4c5c(O)cc(O)c6c(=O)c7c(O)cc(C)c8c1c2c(c34)c(c78)c65 [Hypericin],CC50,[7],> 50 µM
same,CC50,[8],> 50 µM
same,IC50,"[1]; Severe acute respiratory syndrome coronavirus 2, Calu-3, 24 h, read-out: SARS-CoV-2 IC50 in Calu-3 cells",> 50 µM
same,Cmax,[2]; [14],~8 nM
same,IC50,[6],19.3 µM
O=C(Nc1cc(C(F)(F)F)cc(C(F)(F)F)c1)Nc1ccc(Br)cc1-c1nnn[nH]1 [NS-3728],CC50 at 24 h,[7],> 50 µM
same,CC50 at 24 h,[8],> 50 µM
same,IC50,[1]; [13],> 50 µM
same,Cmax,"[2]; in vivo, po",~36500 nM
same,IC50,[6],28.4 µM
COc1ncc(-c2ccc3nccc(-c4ccnnc4)c3c2)cc1NS(=O)(=O)c1ccc(F)cc1F [Omipalisib],CC50 at 24 h,[7],> 0.02 µM
same,CC50 at 24 h,[8],30.8 µM
same,fold higher activity than remdesivir,[1]; Calu-3,200 fold
same,IC50,"[1]; Calu-3 cells, MOI 0.5, 24 h",0.01 µM
same,fold lower IC50 in Calu-3 cells than in Vero cells,[1]; Calu-3 vs Vero,49 fold
same,IC50,[1]; [13],0.01 µM
same,inhibition at 0.03 µM,"[9]; Fig. 4A, Remdesivir 0.00 μM",6%
same,inhibition at 0.06 µM,"[9]; Fig. 4A, Remdesivir 0.00 μM",6%
same,inhibition at 0.12 µM,"[9]; Fig. 4A, Remdesivir 0.00 μM",15%
same,inhibition at 0.25 µM,"[9]; Fig. 4A, Remdesivir 0.00 μM",29%
same,inhibition at 0.49 µM,"[9]; Fig. 4A, Remdesivir 0.00 μM",63%
same,inhibition at 0.98 µM,"[9]; Fig. 4A, Remdesivir 0.00 μM",73%
same,inhibition at 1.97 µM,"[9]; Fig. 4A, Remdesivir 0.00 μM",78%
same,inhibition at 0.03 µM,"[9]; Fig. 4D, Tipifarnib 0.00 μM",11%
same,inhibition at 0.06 µM,"[9]; Fig. 4D, Tipifarnib 0.00 μM",31%
same,inhibition at 0.12 µM,"[9]; Fig. 4D, Tipifarnib 0.00 μM",60%
same,inhibition at 0.25 µM,"[9]; Fig. 4D, Tipifarnib 0.00 μM",90%
same,inhibition at 0.49 µM,"[9]; Fig. 4D, Tipifarnib 0.00 μM",93%
same,inhibition at 0.98 µM,"[9]; Fig. 4D, Tipifarnib 0.00 μM",95%
same,inhibition at 1.97 µM,"[9]; Fig. 4D, Tipifarnib 0.00 μM",95%
same,Cmax,"[2]; in vivo, po",~300 nM
same,selectivity ratio,[10],62.8
same,inhibitory activity against M^pro,[4],showed no inhibitory activity
same,viability,"[11]; Fig. 4B, Omipalisib 0.03 μM, Remdesivir 0.00 μM",82%
same,viability,"[11]; Fig. 4B, Omipalisib 0.06 μM, Remdesivir 0.00 μM",82%
same,viability,"[11]; Fig. 4B, Omipalisib 0.12 μM, Remdesivir 0.00 μM",80%
same,viability,"[11]; Fig. 4B, Omipalisib 0.25 μM, Remdesivir 0.00 μM",81%
same,viability,"[11]; Fig. 4B, Omipalisib 0.49 μM, Remdesivir 0.00 μM",80%
same,viability,"[11]; Fig. 4B, Omipalisib 0.98 μM, Remdesivir 0.00 μM",81%
same,viability,"[11]; Fig. 4B, Omipalisib 1.97 μM, Remdesivir 0.00 μM",80%
same,viability,"[11]; Fig. 4E, Tipifarnib 0.00 μM, Omipalisib 0.03 μM",87%
same,viability,"[11]; Fig. 4E, Tipifarnib 0.00 μM, Omipalisib 0.06 μM",89%
same,viability,"[11]; Fig. 4E, Tipifarnib 0.00 μM, Omipalisib 0.12 μM",88%
same,viability,"[11]; Fig. 4E, Tipifarnib 0.00 μM, Omipalisib 0.25 μM",88%
same,viability,"[11]; Fig. 4E, Tipifarnib 0.00 μM, Omipalisib 0.49 μM",88%
same,viability,"[11]; Fig. 4E, Tipifarnib 0.00 μM, Omipalisib 0.98 μM",87%
same,viability,"[11]; Fig. 4E, Tipifarnib 0.00 μM, Omipalisib 1.97 μM",84%
same,IC50,[6],0.49 µM
same,fold higher antiviral activity than remdesivir,[12]; Vero cells,20 fold
Cn1cncc1[C@@](N)(c1ccc(Cl)cc1)c1ccc2c(c1)c(-c1cccc(Cl)c1)cc(=O)n2C [Tipifarnib],IC50,[1]; [13],4.57 µM
same,inhibition at 0.69 µM,"[9]; Fig. 4D, Omipalisib 0.00 μM",4%
same,inhibition at 1.38 µM,"[9]; Fig. 4D, Omipalisib 0.00 μM",4%
same,inhibition at 2.75 µM,"[9]; Fig. 4D, Omipalisib 0.00 μM",6%
same,inhibition at 5.5 µM,"[9]; Fig. 4D, Omipalisib 0.00 μM",11%
same,inhibition at 11 µM,"[9]; Fig. 4D, Omipalisib 0.00 μM",91%
same,inhibition at 22.01 µM,"[9]; Fig. 4D, Omipalisib 0.00 μM",100%
same,inhibition at 44.02 µM,"[9]; Fig. 4D, Omipalisib 0.00 μM",92%
same,inhibition at 0.69 µM,"[9]; Fig. 4G, Remdesivir 0.00 μM",0%
same,inhibition at 1.38 µM,"[9]; Fig. 4G, Remdesivir 0.00 μM",0%
same,inhibition at 2.75 µM,"[9]; Fig. 4G, Remdesivir 0.00 μM",0%
same,inhibition at 5.5 µM,"[9]; Fig. 4G, Remdesivir 0.00 μM",10%
same,inhibition at 11 µM,"[9]; Fig. 4G, Remdesivir 0.00 μM",93%
same,inhibition at 22.01 µM,"[9]; Fig. 4G, Remdesivir 0.00 μM",100%
same,inhibition at 44.02 µM,"[9]; Fig. 4G, Remdesivir 0.00 μM",87%
same,Cmax,[2]; [14],~8600 nM
same,CC50 at 24 h,[3],> 50 µM
same,CC50 at 24 h,[5],16.6 µM
same,viability,"[11]; Fig. 4E, Tipifarnib 0.69 μM, Omipalisib 0.00 μM",90%
same,viability,"[11]; Fig. 4E, Tipifarnib 1.38 μM, Omipalisib 0.00 μM",91%
same,viability,"[11]; Fig. 4E, Tipifarnib 2.75 μM, Omipalisib 0.00 μM",90%
same,viability,"[11]; Fig. 4E, Tipifarnib 5.50 μM, Omipalisib 0.00 μM",91%
same,viability,"[11]; Fig. 4E, Tipifarnib 11.00 μM, Omipalisib 0.00 μM",76%
same,viability,"[11]; Fig. 4E, Tipifarnib 22.01 μM, Omipalisib 0.00 μM",7%
same,viability,"[11]; Fig. 4E, Tipifarnib 44.02 μM, Omipalisib 0.00 μM",0%
same,viability,"[11]; Fig. 4H, Tipifarnib 0.69 μM, Remdesivir 0.00 μM",91%
same,viability,"[11]; Fig. 4H, Tipifarnib 1.38 μM, Remdesivir 0.00 μM",90%
same,viability,"[11]; Fig. 4H, Tipifarnib 2.75 μM, Remdesivir 0.00 μM",89%
same,viability,"[11]; Fig. 4H, Tipifarnib 5.50 μM, Remdesivir 0.00 μM",88%
same,viability,"[11]; Fig. 4H, Tipifarnib 11.00 μM, Remdesivir 0.00 μM",80%
same,viability,"[11]; Fig. 4H, Tipifarnib 22.01 μM, Remdesivir 0.00 μM",6%
same,viability,"[11]; Fig. 4H, Tipifarnib 44.02 μM, Remdesivir 0.00 μM",0%
same,IC50,[6],11 µM
CCN(CC)CCCC(C)Nc1ccnc2cc(Cl)ccc12 (stereo not drawn) [chloroquine],antiviral activity against SARS-CoV-2 in Vero cells,[12],showed antiviral activity
Cc1cccc(C)c1OCC(=O)N[C@@H](Cc1ccccc1)[C@@H](O)C[C@H](Cc1ccccc1)NC(=O)[C@H](C(C)C)N1CCCNC1=O [lopinavir],antiviral activity against SARS-CoV-2 in Vero cells,[12],showed antiviral activity
